From PubChem BioAssay (NCI)
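Following 48 hours of exposure in 96-well plates, responses at five concentrations were used to interpolate endpoints linearly. The concentration for 50% growth inhibition is given as GI50. TGI: concentration producing complete growth inhibition.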

Experiments:
Test in all cases: inhibition of tumour cell growth, NCI panel, 48 h
[1] = test system: NCI-H522 lung
[2] = test system: SNB-75 CNS
[3] = test system: NCI-H23 lung
[4] = test system: RPMI-8226 leukemia
[5] = test system: CCRF-CEM leukemia
[6] = test system: NCI/ADR-RES ovarian
[7] = test system: M14 melanoma
[8] = test system: SF-539 CNS
[9] = test system: HOP-62 NSCLC
[10] = test system: EKVX NSCLC
[11] = test system: ACHN renal
[12] = test system: HL-60(TB) leukemia
[13] = test system: SK-MEL-28 melanoma
[14] = test system: T-47D breast
[15] = test system: BT-549 breast
[16] = test system: OVCAR-4 ovarian
[17] = test system: RXF 393 renal
[18] = test system: HCT-116 colon
[19] = test system: TK-10 renal
[20] = test system: NCI-H460 lung
[21] = test system: MDA-MB-435
[22] = test system: DU-145 prostate
[23] = test system: COLO 205 colon
[24] = test system: MDA-MB-231 breast
[25] = test system: 786-0 renal
[26] = test system: CAKI-1 renal
[27] = test system: K-562 leukemia
[28] = test system: UO-31 renal
[29] = test system: OVCAR-8 ovarian
[30] = test system: HCT-15 colon
[31] = test system: UACC-257 melanoma
[32] = test system: A498 renal
[33] = test system: SK-MEL-2 melanoma
[34] = test system: OVCAR-3 ovarian
[35] = test system: PC-3 prostate
[36] = test system: LOX IMVI melanoma
[37] = test system: IGROV1 ovarian
[38] = test system: SN12C renal
[39] = test system: MCF7 breast
[40] = test system: UACC-62 melanoma
[41] = test system: HOP-92 NSCLC
[42] = test system: KM12 colon
[43] = test system: SR leukemia
[44] = test system: A549 NSCLC
[45] = test system: U251 CNS
[46] = test system: SW-620 colon
[47] = test system: SF-295 CNS
[48] = test system: HT29 colon
[49] = test system: MOLT-4 leukemia
[50] = test system: SNB-19 CNS
[51] = test system: MALME-3M melanoma
[52] = test system: NCI-H226 lung
[53] = test system: SK-MEL-5 melanoma
[54] = test system: SF-268 CNS
[55] = test system: OVCAR-5 ovarian
[56] = test system: HS 578T breast
[57] = test system: SK-OV-3 ovarian

Question: With COc1ccc2cc(-c3cc4c(oc3=O)-c3ccccc3OC4O)c(=O)oc2c1 (stereo not drawn) as the compound, how does the GI50 [1] read?
Answer: Its GI50 is 17 µM.

Question: What about the TGI [1] of the same compound?
Answer: The TGI was 37.6 µM.

Question: What about the GI50 [2] of the same compound?
Answer: The GI50 was 5.73 µM.

Question: What about the TGI [2] of the same compound?
Answer: Its TGI is 23.4 µM.

Question: What about the GI50 [3] of the same compound?
Answer: Its GI50 is 17.7 µM.

Question: And the TGI [3]?
Answer: The TGI was 33.4 µM.

Question: What about the GI50 [4] of the same compound?
Answer: Its GI50 is 13.4 µM.

Question: And the TGI [4]?
Answer: Its TGI is 58.7 µM.

Question: And the GI50 [5]?
Answer: The GI50 was 19.7 µM.

Question: What about the TGI [5] of the same compound?
Answer: Its TGI is 64.7 µM.

Question: What about the GI50 [6] of the same compound?
Answer: The GI50 was 17.7 µM.

Question: And the TGI [6]?
Answer: The TGI was 31.7 µM.

Question: What about the GI50 [7] of the same compound?
Answer: Its GI50 is 22.1 µM.

Question: And the TGI [7]?
Answer: Its TGI is 43.8 µM.

Question: And the GI50 [8]?
Answer: The GI50 was 15.2 µM.

Question: And the TGI [8]?
Answer: The TGI was 29.2 µM.

Question: And the GI50 [9]?
Answer: The GI50 was 20.3 µM.

Question: And the TGI [9]?
Answer: Its TGI is 35.4 µM.

Question: And the GI50 [10]?
Answer: The GI50 was 15.2 µM.

Question: And the TGI [10]?
Answer: Its TGI is 32.8 µM.

Question: And the GI50 [11]?
Answer: The GI50 was 16.1 µM.

Question: And the TGI [11]?
Answer: The TGI was 30.1 µM.

Question: And the GI50 [12]?
Answer: Its GI50 is greater than 100 µM.

Question: What about the TGI [12] of the same compound?
Answer: The TGI was greater than 100 µM.

Question: What about the GI50 [13] of the same compound?
Answer: Its GI50 is 16.7 µM.

Question: And the TGI [13]?
Answer: The TGI was 32.2 µM.

Question: What about the GI50 [14] of the same compound?
Answer: The GI50 was 13 µM.

Question: What about the TGI [14] of the same compound?
Answer: The TGI was 33.6 µM.

Question: What about the GI50 [15] of the same compound?
Answer: The GI50 was 14.7 µM.

Question: And the TGI [15]?
Answer: The TGI was 28.2 µM.

Question: And the GI50 [16]?
Answer: Its GI50 is 12.3 µM.

Question: What about the TGI [16] of the same compound?
Answer: The TGI was 28.9 µM.

Question: What about the GI50 [17] of the same compound?
Answer: The GI50 was 18.7 µM.

Question: What about the TGI [17] of the same compound?
Answer: Its TGI is 36.4 µM.

Question: And the GI50 [18]?
Answer: Its GI50 is 20.2 µM.

Question: What about the TGI [18] of the same compound?
Answer: Its TGI is 34.7 µM.

Question: What about the GI50 [19] of the same compound?
Answer: The GI50 was 19.9 µM.

Question: What about the TGI [19] of the same compound?
Answer: The TGI was 37 µM.

Question: And the GI50 [20]?
Answer: Its GI50 is 16.7 µM.

Question: What about the TGI [20] of the same compound?
Answer: The TGI was 34.7 µM.

Question: And the GI50 [21]?
Answer: The GI50 was 16.4 µM.

Question: And the TGI [21]?
Answer: The TGI was 36 µM.

Question: And the GI50 [22]?
Answer: The GI50 was 14.3 µM.

Question: And the TGI [22]?
Answer: The TGI was 27.4 µM.

Question: What about the GI50 [23] of the same compound?
Answer: The GI50 was 16.1 µM.

Question: And the TGI [23]?
Answer: The TGI was 33.4 µM.

Question: And the GI50 [24]?
Answer: The GI50 was 17.9 µM.

Question: What about the TGI [24] of the same compound?
Answer: The TGI was 36.1 µM.

Question: What about the GI50 [25] of the same compound?
Answer: The GI50 was 25.4 µM.

Question: And the TGI [25]?
Answer: Its TGI is 41.5 µM.

Question: What about the GI50 [26] of the same compound?
Answer: The GI50 was 14.9 µM.

Question: And the TGI [26]?
Answer: Its TGI is 29.8 µM.

Question: What about the GI50 [27] of the same compound?
Answer: The GI50 was 92.9 µM.

Question: And the TGI [27]?
Answer: Its TGI is greater than 100 µM.

Question: What about the GI50 [28] of the same compound?
Answer: The GI50 was 17.5 µM.

Question: What about the TGI [28] of the same compound?
Answer: Its TGI is 33.4 µM.

Question: And the GI50 [29]?
Answer: The GI50 was 17.5 µM.

Question: What about the TGI [29] of the same compound?
Answer: The TGI was 35.3 µM.

Question: What about the GI50 [30] of the same compound?
Answer: Its GI50 is 15.8 µM.

Question: What about the TGI [30] of the same compound?
Answer: Its TGI is 32 µM.

Question: And the GI50 [31]?
Answer: The GI50 was 16.2 µM.

Question: And the TGI [31]?
Answer: The TGI was 32.3 µM.

Question: And the GI50 [32]?
Answer: Its GI50 is 17.3 µM.

Question: And the TGI [32]?
Answer: The TGI was 33.5 µM.

Question: And the GI50 [33]?
Answer: Its GI50 is 15.6 µM.

Question: And the TGI [33]?
Answer: Its TGI is 31.4 µM.

Question: What about the GI50 [34] of the same compound?
Answer: The GI50 was 15.4 µM.

Question: And the TGI [34]?
Answer: The TGI was 30.6 µM.

Question: And the GI50 [35]?
Answer: Its GI50 is 14.7 µM.

Question: What about the TGI [35] of the same compound?
Answer: Its TGI is 28.3 µM.

Question: And the GI50 [36]?
Answer: Its GI50 is 15.9 µM.

Question: And the TGI [36]?
Answer: The TGI was 31.2 µM.

Question: What about the GI50 [37] of the same compound?
Answer: The GI50 was 16.9 µM.

Question: And the TGI [37]?
Answer: Its TGI is 34 µM.

Question: And the GI50 [38]?
Answer: The GI50 was 17.2 µM.

Question: And the TGI [38]?
Answer: The TGI was 32.2 µM.

Question: What about the GI50 [39] of the same compound?
Answer: The GI50 was 17.1 µM.

Question: And the TGI [39]?
Answer: The TGI was 34.1 µM.

Question: What about the GI50 [40] of the same compound?
Answer: The GI50 was 16.2 µM.

Question: And the TGI [40]?
Answer: Its TGI is 30.4 µM.

Question: And the GI50 [41]?
Answer: Its GI50 is 10.2 µM.

Question: What about the TGI [41] of the same compound?
Answer: Its TGI is 24.7 µM.

Question: What about the GI50 [42] of the same compound?
Answer: The GI50 was 18.2 µM.

Question: And the TGI [42]?
Answer: The TGI was 34.9 µM.

Question: What about the GI50 [43] of the same compound?
Answer: Its GI50 is 79.7 µM.

Question: What about the TGI [43] of the same compound?
Answer: The TGI was greater than 100 µM.

Question: What about the GI50 [44] of the same compound?
Answer: The GI50 was 14.5 µM.

Question: What about the TGI [44] of the same compound?
Answer: Its TGI is 28.2 µM.

Question: What about the GI50 [45] of the same compound?
Answer: The GI50 was 16.4 µM.

Question: And the TGI [45]?
Answer: The TGI was 31.4 µM.

Question: And the GI50 [46]?
Answer: Its GI50 is 15.9 µM.

Question: And the TGI [46]?
Answer: The TGI was 29.7 µM.

Question: What about the TGI [47] of the same compound?
Answer: The TGI was 15.3 µM.

Question: What about the GI50 [48] of the same compound?
Answer: Its GI50 is 17.1 µM.

Question: And the TGI [48]?
Answer: Its TGI is 31.5 µM.

Question: What about the GI50 [49] of the same compound?
Answer: Its GI50 is 50 µM.

Question: And the TGI [49]?
Answer: Its TGI is greater than 100 µM.

Question: And the GI50 [50]?
Answer: The GI50 was 16.2 µM.

Question: And the TGI [50]?
Answer: Its TGI is 30.5 µM.

Question: What about the GI50 [51] of the same compound?
Answer: The GI50 was 19.3 µM.

Question: What about the TGI [51] of the same compound?
Answer: The TGI was 36.8 µM.

Question: What about the GI50 [52] of the same compound?
Answer: The GI50 was 16.1 µM.

Question: What about the TGI [52] of the same compound?
Answer: The TGI was 34 µM.

Question: What about the GI50 [53] of the same compound?
Answer: The GI50 was 13.2 µM.

Question: What about the TGI [53] of the same compound?
Answer: The TGI was 26.9 µM.

Question: What about the GI50 [54] of the same compound?
Answer: Its GI50 is 16.9 µM.

Question: And the TGI [54]?
Answer: The TGI was 33.8 µM.

Question: What about the GI50 [55] of the same compound?
Answer: Its GI50 is 17.3 µM.

Question: What about the TGI [55] of the same compound?
Answer: Its TGI is 31.3 µM.

Question: And the GI50 [56]?
Answer: Its GI50 is 20.8 µM.

Question: What about the TGI [56] of the same compound?
Answer: The TGI was 45.1 µM.

Question: And the GI50 [57]?
Answer: The GI50 was 17.1 µM.

Question: What about the TGI [57] of the same compound?
Answer: The TGI was 32.3 µM.
